Experimental data reported in US10829798B2, “DNA-linked enzyme-coupled assays” (THE REGENTS OF THE UNIVERSITY OF CALIFORNIA, priority 2014, dated 2020).

Target: T1, OleD (Streptomyces antibioticus, UniProt Q53685, P55A/R82V/R83E/T84P)
T1 construct: made in house; host or cells: PURExpress In Vitro Protein Synthesis Kit (NEB E6800L), cell-free transcription/translation, linear DNA with T7 promoter
Assay: FRET DLEnCA, cell-free transcription/translation-derived OleD, fluorescence readout
Type: biochemical
Settings: all components present; chemical 1 mM, UDP-Glc 5 μM, FRET probe 250 nM
Method: FIG. 3A-FIG. 3D. DNA-Linked Enzyme-Coupled Assay using cell-free transcription/translation system. A. UDP-Glc was titrated into reactions containing 250 nM FRET probe, TbGT, and a cell-free transcription/translation system. After 3 hours incubation at 37° C., probe was digested with MfeI and resulting digests were analyzed using fluorescent spectrometry (n=6, error bars=standard error). B. DNA encoding OleD (5 nM) was incubated in a cell-free transcription/translation system for 3 hours at 37° C., followed by the addition of UDP-Glucose (5 μM) and kaempferol (1 mM). After a subsequent incubation of 3 hours, TbGT and FRET probe (250 nM) were added. Following MfeI addition, fluorescence formation was monitored using fluorometry. […] Digests were analyzed using qPCR. […]
Assays were performed using 250 nM fluorescent probe (Sequence provided in FIG. 21) in place of the linear probe. Fluorescence was detected using a Tecan Safire^2 using the following settings: excitation wavelength 550 nm, emission wavelength 564 nm, excitation bandwidth 5 nm, emission bandwidth 5 nm, Gain (manual) 120, Number of reads 10, FlashMode High Sensitivity, Integration time 100 μs, lag time 0 μs, Z-position 12000 μm, Temperature 37° C. Development of fluorescence after MfeI addition was monitored over an 8 hour period. […]

T1 sequence (Q53685 other isoform, or with tags, fused parts or gaps P55A/R82V/R83E/T84P): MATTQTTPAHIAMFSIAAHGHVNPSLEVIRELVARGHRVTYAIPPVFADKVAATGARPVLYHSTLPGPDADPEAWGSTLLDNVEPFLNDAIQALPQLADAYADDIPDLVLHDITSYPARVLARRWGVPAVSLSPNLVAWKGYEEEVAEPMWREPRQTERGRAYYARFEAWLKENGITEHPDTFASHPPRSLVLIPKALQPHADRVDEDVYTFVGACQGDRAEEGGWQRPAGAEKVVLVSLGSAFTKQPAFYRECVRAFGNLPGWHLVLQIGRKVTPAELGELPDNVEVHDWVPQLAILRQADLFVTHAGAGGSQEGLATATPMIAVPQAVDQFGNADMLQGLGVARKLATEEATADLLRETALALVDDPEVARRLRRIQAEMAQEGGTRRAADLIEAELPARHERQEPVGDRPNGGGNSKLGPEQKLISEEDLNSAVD

## O=c1c(O)c(-c2ccc(O)cc2)oc2cc(O)cc(O)c12 [I, kaempferol]
  fluorescent reading after MfeI digestion of FRET probe: 50 RFU
